From patent US6355619B1, “Peptide tumor cell growth inhibitors” (Board of Regents, The University of Texas System, priority 1996, dated 2002) come the findings set out here.

The subject of data set [1] is fMLP-stimulated neutrophil enzyme release. As to the kind of experiment: β-glucuronidase release from neutrophils stimulated by fMLP. The note with it: 100 nM fMLP. It counts as cell-based, human. The procedure:
(§1) FIG. 8. The Effect of Ac-RRWWCR-NH2 (SEQ ID NO:1) on β-glucuronidase Release. Neutrophils pretreated with cytochalasin B were incubated with 100 nM IL-8 (●), 100 nM fMLP (▪), 100 nM C5a (_) or 100 nM leukotriene B4 ? or without any stimulant (◯) in the presence of increasing concentration of Ac-RRWWCR-NH2 (SEQ ID NO:1) for 30 min at 37° C. β-glucuronidase activity of supernatants were measured using phenolphthalein-glucuronic acid as substrate. Analysis of variance was used for multiple comparison.
(§2) Neutrophil enzyme release was studied by a modification of the method of Goldstein and colleagues (Goldstein et al., 1973). Cytochalasin B (Sigma Chemical Co.) was stored in dimethyl sulfoxide at a concentration of 5 mg/ml and was diluted to a concentration of 50 μg/ml in Hank's Balanced Salt Solution (HBSS) immediately before use. Cytochalasin B, 200 μl, was added to 1 ml of suspension of neutrophils, 6.25×10^6 cells/ml in HBSS, to achieve a final cytochalasin B concentration of […]. The solution was then incubated in 96 well plates at room temperature for 10 min. The stimulant, 100 μl, was added, and this cell suspension was incubated for 30 min at 37° C. The plates were centrifuged and 100 μl of supernatant was removed. […] After 16 hr incubation at 37° C., 200 μl of 0.2 M Glycine in 0.2 M NaCl, pH10.4 was added to each well and OD540 was measured as the enzyme activity.

The next data set relates to neutrophils. As to the kind of experiment: β-glucuronidase release from neutrophils without stimulant. The format is cell-based, human. The note with it: without any stimulant. On the procedure:
as §1, §2

For a further data set, the system named is Hep G2. The note with it: 16 hr.

Where two headings read alike, the source gives them in different places.

Protocol for Hep G2: The cell lines (4×10^5 cells/well) in RPMI-1640 medium containing 10% fetal bovine serum were incubated with 10 μCi of Na2^51CrO4 (DuPont NEN Co.) for 60 min at 37° C. in a 24 well tissue culture plate. The cells were washed 3 times and then incubated in cell culture medium for 30 min at 37° C. to allow spontaneous lysis of marginally viable cells. […] The cells were cultured for 16 hr at 37° C. and then the radioactivity in the supernatants was counted in a gamma radiation spectrometer. Quadriplicate wells received cell culture medium alone or 2% SDS to determine spontaneous and maximum release, respectively. The percentage lysis was calculated by using the following formula: [formula]

As for RRWWCR [Ac-RRWWCR-NH2], in data set [1], the “effect on enzyme release stimulated by fMLP” value is recorded as “did not affect the enzyme release”. In the data set on neutrophils, the “stimulation of β-glucuronidase release by the peptide itself” value is listed as “did not stimulate β-glucuronidase release”. Besides, the “% cell lysis” value was −2.1 ± 7.5% in the data set with Hep G2 (Hep G2, 1 μM peptide); −0.8 ± 8.3% with Hep G2 (Hep G2, 5 μM peptide); 5.8 ± 8.3% in the data set with Hep G2 (Hep G2, 20 μM peptide); 0.9 ± 2.9% in the data set with Hep G2 (Hep G2, 100 μM peptide).
